This experiment addresses Pancreatic elastase (Sus scrofa, UniProt P08419+P00772). The experiment is described as follows: Compound is evaluated for the inhibition of porcine pancreatic (PP) elastase. In kind it is protein.

With `COC(=O)CCC(=O)N[C@@H](C)C(=O)N[C@@H](C)C(=O)N1CCC[C@H]1C(=O)CN(C(=O)Oc1ccccc1)C(C)C`, the Ki (commonly the dissociation constant of the complex between target and ligand, obtained from inhibition or displacement) was 31.5 µM.
Turning to `COC(=O)CCC(=O)N[C@@H](C)C(=O)N[C@@H](C)C(=O)N1CCC[C@H]1C(=O)CN(C(=O)Oc1c(F)c(F)c(F)c(F)c1F)C(C)C`, the Ki was 35 µM.
Regarding `COC(=O)CCC(=O)N[C@@H](C)C(=O)N[C@@H](C)C(=O)N1CCC[C@H]1C(=O)CN(C(=O)Sc1nnnn1-c1ccccc1)C(C)C`, the Ki stood at 2.4 µM.
The molecule `COC(=O)CCC(=O)N[C@@H](C)C(=O)N[C@@H](C)C(=O)N1CCC[C@H]1C(=O)CN(C(=O)Sc1nnnn1C)C(C)C` displayed a Ki of 19.5 µM. This Ki is about 8.1-fold higher than that of the molecule before.
`COC(=O)CCC(=O)N[C@@H](C)C(=O)N[C@@H](C)C(=O)N1CCC[C@H]1C(=O)CN(C(=O)Oc1ccc([N+](=O)[O-])cc1)C(C)C` registered a Ki of 42.5 µM.
Regarding `COC(=O)CCC(=O)N[C@@H](C)C(=O)N[C@@H](C)C(=O)N1CCC[C@H]1C(=O)CN(C(=O)OCC(F)(F)C(F)(F)C(F)(F)F)C(C)C`, the Ki was found to be 82.1 µM.

The values above are taken from ChEMBL document CHEMBL1123342 (J Med Chem, 1986).
